Test system: patients with major depressive disorder (MDD)
Test: MADRS total score, Clinical Study A (Study 301): cariprazine adjunctive to ADT, 6-week double-blind
Type: in vivo, human
Settings: for Proportion of patients with MADRS improvement ≥5 points / Proportion of patients with MADRS improvement ≥10 points / Proportion of patients with MADRS improvement ≥15 points / Proportion of patients with MADRS improvement ≥20 points / Proportion of patients with MADRS improvement ≥25 points: post hoc, end of week 6 (LOCF); for MADRS remission rate (total score ≤10) / MADRS response rate (≥50% score reduction from baseline): LOCF
Method: A global, multicenter, randomized, double-blind (DB), placebo-controlled, parallel-group, fixed-dose study compared cariprazine 1.5 mg/day and cariprazine 3 mg/day with placebo as an adjunctive treatment to ongoing ADT in outpatients with a diagnosis of MDD (via the Diagnostic and Statistical Manual of Mental Disorders, Fifth Edition [DSM-5]) having an inadequate response, as measured by the modified Antidepressant Treatment Response Questionnaire (ATRQ), to 1 to 3 antidepressants administered during the current episode at an adequate dose and adequate duration. Adequate dose was defined as a dose above the minimum labeled dose (per package insert). Adequate duration was defined as continuous ADT treatment for at least 6 weeks, with a minimum of 3 of 6 weeks above the minimal dose.
The study population included patients meeting criteria for MDD with a current major depressive episode of at least 8 weeks to less than 24 months in duration and an inadequate response to ongoing antidepressant therapy on the current episode. Both male and female patients of 18 to 65 years of age qualified for the study. Patients met the DSM-5 criteria for MDD based on the SCID-5, with a current major depressive episode of at least 8 weeks to less than 24 months in duration at the time of patient screening. A diagnosis of MDD with psychotic features was […].
Adequate dose was defined as a dose above the minimum labeled dose (per package insert). Adequate duration was defined as continuous antidepressant therapy treatment for at least 6 weeks, with a minimum of 3 of 6 weeks above the minimum dose.
The study consisted of up to 14 days screening (with up to an additional 7 days of needed) and washout of prohibited medications followed by 6 weeks of double-blind (DB) treatment followed by a 4-week safety follow-up. At the end of the screening period, patients meeting the entry criteria for the study were randomized (1:1:1) to 1 of 3 double-blind treatment groups. Study treatment groups were: cariprazine 1.5 mg/day+antidepressant therapy and cariprazine 3 mg/day+antidepressant therapy. The control group received matching placebo+antidepressant therapy.
Dosage/Dose Regimen: Investigational product (cariprazine or placebo) in the form of capsules packaged in blister packs will be provided. No investigational product was administered during the screening/washout period; patients continued the same antidepressant and dose they were on at screening. Patients were taking more than one antidepressant at screening, regardless of the indication, discontinued all other antidepressants prior to baseline (Visit 2). During the double-blind treatment period (6 weeks), patients were administered 1 capsule orally per day in addition to their ongoing ADT. Patients in the 1.5 mg/day+ADT arm were administered 1.5 mg+ADT starting at Visit 2 (Week 0). Patients in the 3 mg/day+ADT arm were administered 1.5 mg+ADT starting at Visit 2 (Week 0) for 2 weeks and then titrate to 3 mg/day+ADT starting at Visit 4 (Week 2). Patients were supplied with identically appearing capsules of either cariprazine 1.5 mg, cariprazine 3 mg, or placebo.
A randomized, double-blind, placebo-controlled, multicenter trial with 759 participants was conducted in United States, Bulgaria, Estonia, Germany, Hungary, Ukraine, and the United Kingdom. Following a screening period of up to 14 days (with up to an additional 7 days if needed), which included a washout of prohibited psychotropic medications except for ongoing ADT, patients with a partial response to their antidepressant monotherapy were randomized into three treatment groups (1:1:1). One group received cariprazine 1.5 mg/d+ADT, one received cariprazine 3.0 mg/d+ADT, and one group received placebo+ADT. All participants randomized to cariprazine began on 1.5 mg/d; cariprazine 1.5 mg/d patients remained at that dosage, while cariprazine 3.0 mg/d patients received 1.5 mg/d for 2 weeks and increased to 3.0 mg/d on day 15. […]

[1] = 1.5 mg/d + ADT, week 6, ANCOVA and LOCF
[2] = 3.0 mg/d + ADT, week 6, ANCOVA and LOCF
[3] = change from baseline to week 6, dose not stated

In the case of `CN(C)C(=O)N[C@H]1CC[C@H](CCN2CCN(c3cccc(Cl)c3Cl)CC2)CC1` [Cariprazine, trans-N-{4-[2-[4-(2,3-dichlorophenyl)piperazin-1-yl]ethyl]cyclohexyl}-N′,N′-dimethylurea], the “Proportion of patients with MADRS improvement ≥5 points” value (1.5 mg/d + ADT) is reported as 84%, the “Proportion of patients with MADRS improvement ≥10 points” value (1.5 mg/d + ADT) is reported as 64% and the “Proportion of patients with MADRS improvement ≥15 points” value (1.5 mg/d + ADT) is reported as 46%. The “Proportion of patients with MADRS improvement ≥20 points” value (1.5 mg/d + ADT) was 33%, the “Proportion of patients with MADRS improvement ≥25 points” value (1.5 mg/d + ADT) was 19% and the “Mean (SD) MADRS score at week 6” value (1.5 mg/d + ADT, week 6) was 17.4 (9.1). The “LS mean change from baseline in MADRS total score” value (“LS mean change from baseline” for short) [1] was −14.4, the “LSMD vs placebo, MADRS total score” value [1] was −2.4 and the “MADRS remission rate (total score ≤10)” value (1.5 mg/d + ADT, week 6) was 25.2%. For the same compound, the “MADRS response rate (≥50% score reduction from baseline)” value (1.5 mg/d + ADT, week 6) was 44.0%, the “LS Mean (SE) change from baseline, MADRS total score” value (shortened to “LS Mean (SE) change from baseline”) (1.5 mg/day + ADT, week 1, MMRM) was −4.4 (0.5) and the “LSMD (95% CI) vs placebo + ADT, MADRS total score” value (“LSMD (95% CI) vs placebo + ADT” for short) (1.5 mg/day + ADT, week 1, MMRM) was −0.6 (−1.5; 0.5). The “MADRS remission, odds ratio vs placebo (95% CI)” value (1.5 mg/day + ADT, week 2) was 0.9 (0.4, 1.8), the “MADRS remissions (total score ≤10)” value (1.5 mg/day + ADT, week 2) was 13 (5.2) n (%) and the “MADRS responders (≥50% score reduction)” value (1.5 mg/day + ADT, week 2) was 43 (17.2) n (%). The “MADRS response, odds ratio vs placebo (95% CI)” value (1.5 mg/day + ADT, week 2) was 1.2 (0.7, 2.0), the “LS Mean (SE) change from baseline” value (1.5 mg/day + ADT, week 2, MMRM) was −8.6 (0.6) and the “LSMD (95% CI) vs placebo + ADT” value (1.5 mg/day + ADT, week 2, MMRM) was −1.2 (−2.5; 0). For the same compound, the “MADRS remission, odds ratio vs placebo (95% CI)” value (1.5 mg/day + ADT, week 4) was 1.2 (0.7, 1.9), the “MADRS remissions (total score ≤10)” value (1.5 mg/day + ADT, week 4) was 37 (14.8) n (%) and the “MADRS responders (≥50% score reduction)” value (1.5 mg/day + ADT, week 4) was 88 (35.2) n (%). The “MADRS response, odds ratio vs placebo (95% CI)” value (1.5 mg/day + ADT, week 4) was 1.6 (1.1, 2.3), the “LS Mean (SE) change from baseline” value (1.5 mg/day + ADT, week 4, MMRM) was −12.4 (0.6) and the “LSMD (95% CI) vs placebo + ADT” value (1.5 mg/day + ADT, week 4, MMRM) was −2.9 (−4.3; −1.5). The “MADRS remissions (total score ≤10)” value (1.5 mg/day + ADT, week 6) was 63 (25.2) n (%), the “MADRS responders (≥50% score reduction)” value (1.5 mg/day + ADT, week 6) was 110 (44.0) n (%) and the “LSMD vs placebo, MADRS total score” value (1.5 mg/day + ADT, week 6, MMRM) was −2.5 (−4.2; −0.9). The “LSMD vs placebo, MADRS total score” value (1.5 mg/day + ADT, week 6, MMRM, listed as CAR) was −2.5, the “LSMD vs placebo, MADRS total score” value (1.5 mg/day + ADT, week 6, MMRM, listed as cariprazine) was −2.5 and the “LS mean change from baseline” value (1.5 mg/day + ADT, week 6, MMRM, mITT) was −14.1 (0.7). The “LS mean change from baseline” value (1.5 mg/day + ADT, week 6, MMRM, mITT, listed as cariprazine) was −14.1, the “Proportion of patients with MADRS improvement ≥5 points” value (3.0 mg/d + ADT) was 84% and the “Proportion of patients with MADRS improvement ≥10 points” value (3.0 mg/d + ADT) was 66%. The “Proportion of patients with MADRS improvement ≥15 points” value (3.0 mg/d + ADT) was 43%, the “Proportion of patients with MADRS improvement ≥20 points” value (3.0 mg/d + ADT) was 24% and the “Proportion of patients with MADRS improvement ≥25 points” value (3.0 mg/d + ADT) was 11%. For the same compound, the “Mean (SD) MADRS score at week 6” value (3 mg/d + ADT, week 6) was 18.6 (8.9), the “LS mean change from baseline” value [2] was −13.3 and the “LSMD vs placebo, MADRS total score” value [2] was −1.3. For the same compound, the “MADRS remission rate (total score ≤10)” value (3.0 mg/d + ADT, week 6) was 16.7%, the “MADRS response rate (≥50% score reduction from baseline)” value (3.0 mg/d + ADT, week 6) was 39.3% and the “LS Mean (SE) change from baseline” value (3 mg/day + ADT, week 1, MMRM) was −3.9 (0.5). The “LSMD (95% CI) vs placebo + ADT” value (3 mg/day + ADT, week 1, MMRM) was −0.1 (−1.0; 0.8), the “MADRS remission, odds ratio vs placebo (95% CI)” value (3 mg/day + ADT, week 2) was 0.5 (0.25, 1.23) and the “MADRS remissions (total score ≤10)” value (3 mg/day + ADT, week 2) was 9 (3.6) n (%). For the same compound, the “MADRS responders (≥50% score reduction)” value (3 mg/day + ADT, week 2) was 39 (15.5) n (%), the “MADRS response, odds ratio vs placebo (95% CI)” value (3 mg/day + ADT, week 2) was 1.1 (0.7, 1.8) and the “LS Mean (SE) change from baseline” value (3 mg/day + ADT, week 2, MMRM) was −7.8 (0.6). For the same compound, the “LSMD (95% CI) vs placebo + ADT” value (3 mg/day + ADT, week 2, MMRM) was −0.5 (−1.7; 0.8), the “MADRS remission, odds ratio vs placebo (95% CI)” value (3 mg/day + ADT, week 4) was 0.6 (0.4, 1.1) and the “MADRS remissions (total score ≤10)” value (3 mg/day + ADT, week 4) was 22 (8.7) n (%). The “MADRS responders (≥50% score reduction)” value (3 mg/day + ADT, week 4) was 60 (23.8) n (%), the “MADRS response, odds ratio vs placebo (95% CI)” value (3 mg/day + ADT, week 4) was 0.9 (0.6, 1.3) and the “LS Mean (SE) change from baseline” value (3 mg/day + ADT, week 4, MMRM) was −10.6 (0.6). The “LSMD (95% CI) vs placebo + ADT” value (3 mg/day + ADT, week 4, MMRM) was −1.0 (−2.4; 0.4), the “MADRS remissions (total score ≤10)” value (3 mg/day + ADT, week 6) was 42 (16.7) n (%) and the “MADRS responders (≥50% score reduction)” value (3 mg/day + ADT, week 6) was 99 (39.3) n (%). For the same compound, the “LSMD vs placebo, MADRS total score” value (3 mg/day + ADT, week 6, MMRM) was −1.5 (−3.2; 0.1), the “LSMD vs placebo, MADRS total score” value (3 mg/day + ADT, week 6, MMRM, listed as CAR) was −1.5 and the “LS mean change from baseline” value (3 mg/day + ADT, week 6, MMRM, mITT) was −13.1. The “LSMD vs placebo, MADRS individual item "apparent sadness"” value [3] was −0.2, the “LSMD vs placebo, MADRS individual item "inability to feel"” value [3] was −0.3 and the “LSMD vs placebo, MADRS individual item "lassitude"” value [3] was −0.3. The “LSMD vs placebo, MADRS individual item "pessimistic thoughts"” value [3] was −0.3, the “LSMD vs placebo, MADRS individual item "reduced appetite"” value [3] was −0.3 and the “LSMD vs placebo, MADRS individual item "reported sadness"” value [3] was −0.4. The “LSMD vs placebo, MADRS individual item "suicidal thoughts"” value [3] was −0.1.

Reference: patent US20240398787A1, “TREATMENT OF MAJOR DEPRESSIVE DISORDER” (AbbVie Inc., priority 2021, published 2024)
